Measured values as given in patent US20220119840A1, “CLOSED-ENDED DNA (CEDNA) AND USE IN METHODS OF REDUCING GENE OR NUCLEIC ACID THERAPY RELATED IMMUNE RESPONSE” (Generation Bio Co., priority 2019, published 2022).
Entries after “also recorded” stand apart in the source; their conditions may differ. Read-outs that look alike come from different tables or passages of the source.

How the values were obtained:
IRF pathway = assay: THP-1 Dual reporter assay, interferon (IRF pathway) induction, Quanti-Luc; type: cell-based; settings: for effect on ceDNA-induced interferon induction: inhibitor pretreatment 2 h, 0.625-2.5 μM; for concentration giving maximal inhibition of interferon induction: doses 0.625, 1.25, 2.5 μM
[1] = test system: IFN-α, IFN-γ, IL-6, IP-10, IL-18, IL-1β, MCP-1, and TNF-alpha; assay: ProcartaPlex multiplex cytokine immunoassay after TTX-9 ceDNA with inflammasome inhibitor pre-treatment; type: in vivo; settings: C57bL mice, inhibitor i.p. 12-16 h and 1 h before 0.5 mg/kg ceDNA (TTX9-LNP) IV
human TLR9 = biological target: T1, human TLR9 (Homo sapiens, UniProt Q9NR96); assay: HEK-BLUE.hTLR9 NF-κB/SEAP assay (Quanti-BLUE); type: cell-based; settings: A151 10 μM, 3 h pretreatment, 300 ng ceDNA
T1 construct: host or cells: HEK-293 (HEK-BLUE.hTLR9 cells)
T1 sequence (Q9NR96 26-1032): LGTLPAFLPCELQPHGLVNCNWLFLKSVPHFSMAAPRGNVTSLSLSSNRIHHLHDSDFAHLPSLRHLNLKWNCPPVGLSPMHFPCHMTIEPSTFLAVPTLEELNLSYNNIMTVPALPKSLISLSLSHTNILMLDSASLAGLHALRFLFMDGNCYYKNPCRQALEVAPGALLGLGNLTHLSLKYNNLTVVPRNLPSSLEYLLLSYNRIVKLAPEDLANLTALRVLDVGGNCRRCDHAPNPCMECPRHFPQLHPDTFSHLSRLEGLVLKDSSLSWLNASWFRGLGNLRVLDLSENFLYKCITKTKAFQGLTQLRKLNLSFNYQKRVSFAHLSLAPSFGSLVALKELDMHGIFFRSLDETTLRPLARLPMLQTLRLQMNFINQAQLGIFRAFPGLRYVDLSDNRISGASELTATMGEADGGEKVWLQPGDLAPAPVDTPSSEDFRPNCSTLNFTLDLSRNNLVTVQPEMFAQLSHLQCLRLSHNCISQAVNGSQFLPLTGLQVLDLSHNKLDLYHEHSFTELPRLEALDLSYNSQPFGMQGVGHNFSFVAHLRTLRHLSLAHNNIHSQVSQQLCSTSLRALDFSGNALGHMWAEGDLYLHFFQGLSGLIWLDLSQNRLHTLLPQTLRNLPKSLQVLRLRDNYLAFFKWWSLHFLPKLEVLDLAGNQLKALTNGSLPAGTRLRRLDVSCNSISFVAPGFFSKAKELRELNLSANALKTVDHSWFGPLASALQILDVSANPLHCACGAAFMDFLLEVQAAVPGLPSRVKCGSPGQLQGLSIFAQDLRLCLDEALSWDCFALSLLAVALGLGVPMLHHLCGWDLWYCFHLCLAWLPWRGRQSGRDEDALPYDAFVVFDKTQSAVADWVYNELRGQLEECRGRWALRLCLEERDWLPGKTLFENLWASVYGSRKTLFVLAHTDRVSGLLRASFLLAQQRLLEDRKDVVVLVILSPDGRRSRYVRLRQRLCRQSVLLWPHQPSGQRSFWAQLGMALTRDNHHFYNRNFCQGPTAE

Factor IX deficient mice = assay: Factor IX plasma ELISA, ceDNA encoding Factor IX and A151; type: in vivo

Row | Compound | effect on ceDNA-induced interferon induction (IRF pathway) | levels of IL-18 [1] | concentration giving maximal inhibition of interferon induction (IRF pathway) | also measured
1 | O=C(NCCCNc1nc(Nc2cccc(NC(=O)N3CCCC3)c2)ncc1I)c1cccs1 [BX795, N-[3-[[5-Iodo-4-[[3-[(2-thienylcarbonyl)amino]propyl]amino]-2-pyrimidinyl]amino]phenyl]-1-pyrrolidinecarboxamide] | similarly reduce this interferon pathway activation; also recorded: abrogation of ceDNA-induced interferon induction | – | – | –
2 | CC(C)(O)c1coc(S(=O)(=O)NC(=O)Nc2c3c(cc4c2CCC4)CCC3)c1 [MCC950] | – | significant reduction of IFN-γ; also recorded: significantly reduced | – | levels of IFNγ [1]: significant reduction of IFN-γ; also recorded: significantly reduced; levels of IP-10 [1]: reduction in levels
3 | CO[C@H]1C[C@@H]2CC[C@@H](C)[C@@](O)(O2)C(=O)C(=O)N2CCCC[C@H]2C(=O)O[C@H]([C@H](C)C[C@@H]2CC[C@@H](O)[C@H](OC)C2)CC(=O)[C@H](C)/C=C(\C)[C@@H](O)[C@@H](OC)C(=O)[C@H](C)C[C@H](C)/C=C/C=C/C=C/1C [RAPA, rapamycin] | – | – | – | RAPA solubility in the dispersed nanocarrier phase (PLA and PLA-PEG as nanocarrier polymers): 8.4 % wt/wt; RAPA solubility in the dispersed nanocarrier phase (PLGA and PLA-PEG as nanocarrier polymers): 7.2 % wt/wt
4 | CCO[C@@H]1OC(=O)C[C@@H]1NC(=O)[C@@H]1CCCN1C(=O)[C@@H](NC(=O)c1ccc(N)c(Cl)c1)C(C)(C)C [VX765, (S)-1-((S)-2-{[1-(4-amino-3-chloro-phenyl)-methanoyl]-amino}-3,3-dimethyl-butanoyl)-pyrrolidine-2-carboxylic acid ((2R,3S)-2-ethoxy-5-oxo-tetrahydro-furan-3-yl)-amide] | – | reduced | – | –
5 | A151: oligonucleotide TTAGGGTTAGGGTTAGGGTTAGGG (SEQ ID NO:892) | similarly reduce this interferon pathway activation; also recorded: dose-dependency of interferon induction inhibition; also recorded: concentration-dependent | – | 2.5 µM | ceDNA-stimulated NF-κB induction in presence of inhibitor (human TLR9): reduced the ceDNA-stimulated NF-κB induction to the same degree as methylation of CpG; also recorded: minimal levels of NF-κB induction; cytokine secretion upon re-dose (Factor IX deficient mice; versus ceDNA vector encoding only Factor IX): less activation of cytokine secretion; expression of factor IX (Factor IX deficient mice; versus ceDNA vector expressing only Factor IX): increased and/or sustained expression of factor IX
6 | AS1411: TLR9 inhibitory oligonucleotide GGTGGTGGTGGTTGTGGTGGTGGTGG, SEQ ID NO: 903 (chemistry not given here) | dose-dependency of interferon induction inhibition; also recorded: concentration-dependent | – | 2.5 µM | –
